# Assays:
# LN229 and U251 cells = experiment: Annexin V apoptosis flow cytometry, glioblastoma cells; type: cell-based
# Protocol: Cell apoptosis and cell cycle: Cells (2×10^5) were plated in 6-well plates and treated with different concentrations of ISP I. Then the cells were harvested and washed three times with PBS. Cells were resuspended in 100 μl binding buffer and were incubated with 5 μl APC-conjugated Annexin V working solution, a product of BD bioscience (Franklin Lakes, NJ USA), and 1 μl propidium iodide (PI), a product of Invitrogen, for 15 min at room temperature with protection from light. Data acquisition and quantification were processed with BD LSRFortessa flow cytometer, using FlowJo software (Ashland, OR USA).
# [1] = test system: SELH-deficient LN229 cells and RCC cells (786-O and RCC4); experiment: CCK8 assay in SELH-deficient (CRISPR/CAS9) cells; type: cell-based; conditions: CCK8, compared to wild-type cells
# Source text: SELH knockout LN229 cell lines and B16 were generated using the CRISPR/Cas9 technique described by Shalem et al., Science 343: 84 (2014). The gDNA for targeting SELH was designed as follows: Oligo 1, 5′-[…]-3′; Oligo 2, 5′-[…]-3′; the gDNA for targeting mouse SELH was designed as follows: Oligo 1, 5′-[…]-3′; Oligo 2, 5′-[…]-3′, and subcloned into Cas9 carrying vector (pX330). The two resultant plasmids and puromycin-expressing vector (pPGK-puro) were co-transfected at a ratio of 1:1:1 into LN229 or B16 cells using Lipofectamine 2000 (Invitrogen). Twenty-four hours later, the transfected cells were subjected to puromycin (Sigma) at 1 μg/mL for 7 days. One week after selection, the surviving clones were expanded, followed by extraction of total protein for standard western blotting analysis.
# [2] = test system: human non-small cell lung cancer cells A549
# Protocol: Experimental Materials Human non-small cell lung cancer cells A549, mouse breast cancer cells 4T-1 and mouse melanoma B16-BL6 were purchased from American Type Current Collection (ATCC, Rockville, MD, USA). An RPMI-1640 culture solution containing 10% of fetal calf serum and 2% of glutamine was inoculated with the A549, 4T-1 and B16-BL6 cells, and the cells were incubated at 37° C. in a 5% CO2 incubator.
# The compounds were dissolved in DMSO under a sterile condition, and the obtained solutions were diluted to required concentrations by using an RPMI 1640 culture solution, wherein the final concentration of the DMSO was less than 0.5%.
# MTT reduction method is used.
# A549, 4T-1 and B16-BL6 were used as adherent cells, adherent tumor cells in a logarithmic phase were selected, digested with pancreatin, and then prepared into a cell suspension of 5×10^4/ml with a culture medium containing 10% of calf serum, a 96-well culture plate was inoculated with the cell suspension, wherein each well contained 100 μl of the cell suspension, and incubation was carried out for 24 h at 37° C. and 5% CO2. Replacing was carried out with a new culture solution containing the samples to be detected of different concentrations in the experimental groups, replacing was carried out with a culture solution containing a same volume of solvent in the control group, three parallel wells were set in each group, and incubation was carried out for 48 hours at 37° C. and 5% CO2. The supernate was discarded, careful washing was carried out with PBS twice, 100 μl of a freshly prepared culture medium containing 0.5 mg/ml of MTT was added into each well, and incubation was continued to be carried out at 37° C. for 4 h. The supernatant was carefully discarded, 150 μl of DMSO was added, uniform mixing was carried out for 10 min by using a micro oscillator, and the optical density value was measured at 492 nm by using a microplate reader.
# Tumor cell growth inhibition ratio (%)=[A492 (negative control)−A492 (dosing group)]/A492 (negative control)×100%
# The median inhibitory concentration (IC50) of the sample is calculated.
# 786-O and RCC4 cells = experiment: Cell cycle analysis by flow cytometry, RCC cells; type: cell-based
# Protocol: Cell viability was assessed similarly via CKK8 analysis. […] (FIG. 10C, D).
# For monitoring cell-cycle arrest of ISP I-treated cells, Click-iT EdU Flow Cytometry Assay Kits were used, a product of ThermoFisher Scientific. Cells were co-cultured with EdU at a concentration of 10 μM for 1 hour. After fixation and permeabilization, EdU-positive cells were labeled with Alexa Fluor 647 fluorescein. DAPI also was used for measuring total DNA content to identify differences in cell cycle phases. Data were collected by means of a BD LSRFortessa flow cytometer using FlowJo software. Cells that are positive with EdU and DAPI were in S-Phase of the cell cycle.
# [3] = Veterinary histopathology review of major organs and clinical chemistry; type: in vivo; conditions: 24 days after treatment
# SELH = SELH (Homo sapiens (Human), UniProt Q8IZQ5); experiment: Thermo-stability assay (CETSA) in LN229 and 786-O cell lines; type: binding; conditions: western blot, vs DMSO
# Source text: Next, the inventors used a thermo-stability assay to confirm SELH was targeted by ISP I in LN229 and 786-O cell lines. The principle of the assay is based on altered protein thermal stabilization/destabilization due to ligand binding in living cells. […] (FIG. 11B and FIG. 12A). To verify further the specificity of ISP I's targeting of SELH, the inventors designed a surface plasmon resonance assay to assess the interaction of ISP I with SELH synthesized in bacteria.
# CETSA experiments were performed to determine the ISP I-related ligand induced shifts. Intact and live cells in a 10-cm dish were harvested, washed and resuspended in PBS with protease inhibitor cocktail. Protein of the cells was extracted by freeze-thaw more than three times, using liquid nitrogen. The supernatant was centrifuged at 20,000 g for 20 min at 4° C. Then the samples were aliquoted to several groups incubated with different concentrations of ISP I for 1 hour. After that, samples were aliquoted into PCR tubes and thereafter heated at gradient temperature ranging from 40° C. to 80° C. for 3 min. Then the samples were centrifuged again and resolved using 4-12% SDS-PAGE followed by western blot experiments.
# Chain of SELH (Q8IZQ5 whole entry): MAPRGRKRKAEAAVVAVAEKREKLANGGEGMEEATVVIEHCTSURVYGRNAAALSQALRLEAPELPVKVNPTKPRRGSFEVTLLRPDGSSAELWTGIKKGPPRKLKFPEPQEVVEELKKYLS
compound,measurement,setting,value
"CO[C@@H]1[C@@H](O[C@@H]2O[C@H](C)[C@@H](O[C@H]3C[C@@](C)(O)[C@@H](OC(=O)CC(C)C)[C@H](C)O3)[C@H](N(C)C)[C@H]2O)[C@@H](CC=O)C[C@@H](C)[C@@H](O[C@H]2CC[C@H](N(C)C)[C@@H](C)O2)/C=C/C=C/C[C@@H](C)OC(=O)C[C@H]1O [Isovalerylspiramycin I, 4″-isovalerylspiramycin I]",apoptosis (Annexin V stain),LN229 and U251 cells,dose-dependent apoptosis
same,response of SELH-deficient cells to treatment,[1],SELH-deficient cells were resistant to ISP I treatment
same,A549 IC50 cytotoxicity,[2],1.29 µg/mL
same,cell-cycle arrest,786-O and RCC4 cells,induced cell-cycle arrest in the G0/G1 phase
same,toxicities in major organs and clinical chemistry,[3],"no hematologic, renal, pancreatic or liver toxicities"
same,thermal protection of SELH,SELH,protective effect of ISP I on SELH was present over a range of increasing temperatures
